Patent publication US7838515B2, “Formulations of quaternary ammonium neuromuscular blocking agents” (Lyotropic Therapeutics, Inc., priority 2005, dated 2010)
Where two headings read alike, the source gives them in different places.

What was measured:
[1] = cited from earlier work
[2] = Shelf-life of vecuronium bromide control solutions (HPLC, 15% potency lost); type: physicochemical; details: for shelf-life of solution: 1 mg/ml in water, point at which 15% of potency is lost
From the text: In the Examples below, where HPLC assay results for vecuronium are reported, the following gives the parameters of the HPLC measurement. HPLC System was a Shimadzu VP Series that consists of the following components: SPD-M10A—Diode Array Detector; SIL-10AD—Autosampler; LC-10AT—Pump; SCL-10A—Controller; and Shimadzu EZ Start Version 7.2 SP 1 Revision B—Software. Chromatographic Parameters: Mobile Phase—60% Acetonitrile, 25% Methanol, 15% 0.1M TMAH (pH=6.5); Column—25 cm×4.6 mm Phenomenex Luna C18 5 μm; Wavelength—210 nm; Injection Volume—5 μL; Flow Rate—1.0 mL/min; Standard Preparation—1 mg/mL in 0.001N HCl/Methanol; and Sample Preparation—1 mg/mL—Undiluted.
In the case of vecuronium at pH 6 and 25° C., the shelf-life of just under 1 week was recorded for both a maleate-TRIS buffer and an HCl-acidified vecuronium solution.

[3] = Cubic phase-water partitioning of vecuronium (HPLC); type: physicochemical
From the text: It is this hydrophobic milieu that is central to the invention, in limiting the contact between water and the labile group(s) of the drug.

twitch response = details: 0.08 to 0.1 mg/Kg, balanced anesthesia; cited from earlier work
[4] = HPLC stability of vecuronium bromide solutions with anionic additives (Example 1); type: physicochemical
Description: HPLC System was a Shimadzu VP Series that consists of the following components: SPD-M10A—Diode Array Detector; SIL-10AD—Autosampler; LC-10AT—Pump; SCL-10A—Controller; and Shimadzu EZ Start Version 7.2 SP 1 Revision B—Software.
In this Example a number of anionic compounds, with various pKa's and carbon numbers, were compared for their ability to stabilize vecuronium in solution.
The following chart gives the compositions that were prepared and examined by HPLC for stability over time. Each sample contained approximately 1 mg/mL vecuronium bromide. […] All numerical entries in the chart are actual recorded weights in grams: […]

[5] = with a charged surfactant (sodium glycocholate)
[6] = 25° C. and 40° C. data of Example 1

With `CCCCCCCCCCCCCC(=O)OCC(COP(=O)(O)OCC(O)CO)OC(=O)CCCCCCCCCCCCC` (stereo not drawn) [DMPG, dimyristoylphosphatidylglycerol] as the compound, how does the pKa [1] read?
The pKa was “approx. 3.0”.

What about the pKa ([1]; listed as Dimyristoyl phosphatidylglycerol) of the same compound?
The pKa was “about 3.0”.

Which shelf-life of solution ([2]; pH 6.0, 4° C.) does the source give for `CC(=O)O[C@H]1C[C@@H]2CC[C@@H]3[C@H](CC[C@@]4(C)[C@H]3C[C@H]([N+]3(C)CCCCC3)[C@@H]4OC(C)=O)[C@@]2(C)C[C@@H]1N1CCCCC1` [Vecuronium, vecuronium bromide] here?
The shelf-life of solution was 5 weeks.

What about the shelf-life of solution ([2]; pH 6.0, 25° C.) of the same compound?
The shelf-life of solution was 1 week.

What about the “time until potency is reduced to 85% of initial” value ([2]; control solution at same pH (5.2) and temperature (25° C.)) of the same compound?
The value was “about 2 weeks”.

What about the shelf-life ([2]; pH 6, 25° C., both maleate-TRIS buffer and HCl-acidified solution) of the same compound?
The shelf-life was “under 1 week”.

What about the “KQW (cubic-water partition coefficient)” value [3, 5] of the same compound?
The value was 10,000.

And the “concentration in the aqueous phase” value [3, 5]?
The value was 1 µg/mL.

What about the “concentration in the cubic phase” value [3, 5] of the same compound?
Its value is 10600 µg/mL.

What about the “log KQW” value [3, 5] of the same compound?
Its value is “+4”.

And the “KQW (cubic-water partition coefficient)” value ([3]; without a charged surfactant)?
The value was 1,667.

What about the “concentration in the aqueous phase” value ([3]; without a charged surfactant) of the same compound?
The value was 6 µg/mL.

And the “concentration in the cubic phase” value ([3]; without a charged surfactant)?
The value was 10000 µg/mL.

What about the “log KQW” value ([3]; without a charged surfactant) of the same compound?
Its value is “+3.2”.

And the “time to first depression of twitch response” value (twitch response)?
The value was “approximately 1 minute”.

Which “effect of the additive on vecuronium solution stability (in words)” value (shortened to “effect of the additive”) [4, 6] does the source give for `CCCCCCCC(=O)O` [octanoic, Octanoic acid] here?
Its value is “equally bad”.

Which results are given for `O=C1NS(=O)(=O)c2ccccc21` [saccharin]?
effect of the additive on vecuronium solution stability (in words) [4]: most stable solutions; pKa [1]: 2.0

With `C[C@H](CCC(=O)O)[C@H]1CC[C@H]2[C@@H]3CC[C@@H]4C[C@H](O)CC[C@]4(C)[C@H]3C[C@H](O)[C@]12C` [deoxycholic acid] as the compound, how does the pKa [1] read?
Its pKa is “about 5.7”.

For `C[C@H](CCC(=O)NCC(=O)O)[C@H]1CC[C@H]2[C@@H]3[C@H](O)C[C@@H]4C[C@H](O)CC[C@]4(C)[C@H]3C[C@H](O)[C@]12C` [glycocholic, glycocholic acid], which pKa [1] is on record?
The pKa was “approximately 3.5”.

And the pKa ([1]; listed as glycocholate)?
The pKa was 3.5.

Which pKa [1] does the source give for `O=C(O)/C=C\C(=O)O` [maleic] here?
Its pKa is 3.9.

What does the source list for `CC(=O)N[C@@H](Cc1c[nH]c2ccccc12)C(=O)O` [N-acetyltryptophan]?
effect of the additive on vecuronium solution stability (in words) [4, 6]: performed very poorly at the higher temperature; pKa [1]: 3.4

Which “effect of the additive” value [4] does the source give for `O=C(O)c1cc(O)ccc1O` [gentisic, gentisic acid] here?
The value was “most stable solutions”.

Which “effect of the additive” value [4] does the source give for `Cc1ccc(S(=O)(=O)O)cc1` [toluenesulfonic, toluenesulfonic acid] here?
The value was “most stable solutions”.

With `O=S(=O)(O)c1ccccc1` [benzenesulfonic, benzenesulfonic acid] as the compound, how does the “effect of the additive” value [4] read?
Its value is “most stable solutions”.
